Experimental data reported in patent publication US11046697B2, “Compounds and compositions useful for treating disorders related to NTRK” (BLUEPRINT MEDICINES CORPORATION, priority 2015, dated 2021).
Read-outs that look alike come from different tables or passages of the source.

How the values were obtained:
[1] = test system: KM12 Cliff (G595R) cell line; assay: NTRK G595R mutant cellular assay (CellTiter-Glo growth inhibition); format: cell-based; settings: for IC50: 72 hr, CellTiter-Glo
Experimental: (§1) NTRK Wild Type and G595R Mutant Cellular Assays Protocol
(§2) KM12 wild type colon carcinoma cell line harboring the TPM3-NTRK1 fusion protein was obtained from the National Cancer Institute (NCI). This line has been previously shown to be dependent upon the NTRK activity derived from the NTRK fusion protein for growth and survival. […] Cells were first plated in 384-well plates at 1000 cells/well in complete media (10% FBS and 1% pen/strep) and incubated overnight at 37° C. Cells were then dosed with test articles at varying concentrations using the Bravo liquid handling system. […] Each compound was run in duplicate per plate. […] 72 hr after dosing, assay plates were developed using CellTiter-Glo (Promega) and resultant luminescence was read on the Envision plate reader. IC50 determinations were calculated using a 4-parameter curve fitting algorithm

wild type NTRK1 enzyme = target: T1, wild type NTRK1 enzyme (Homo sapiens, UniProt P04629); assay: NTRK1 Wild Type Assay at 1 mM ATP; format: biochemical; settings: 1 mM ATP; read-out: Enz NTRK1 IC50
T1 construct: purchased BPS Bioscience 40280
Experimental: NTRK1 Wild Type Assay at 1 mM ATP
The reaction was stopped by the addition of 70 μL of Stop buffer (100 mM HEPES pH 7.5, 0.015% Brij 35, 35 mM EDTA and 0.2% of Coating Reagent 3 (Caliper Lifesciences)). The plate was then read on a Caliper EZReader 2 (protocol settings: −1.7 psi, upstream voltage −500, downstream voltage −3000, post sample sip 35s).

[2] = test system: KM12 wild type colon carcinoma cell line harboring the TPM3-NTRK1 fusion protein; assay: NTRK wild type cellular assay (CellTiter-Glo growth inhibition); format: cell-based; settings: for IC50: 72 hr, CellTiter-Glo, read-out: KM12 (WT) IC50
Experimental: as §1, §2

T1 sequence (P04629 440-796 limits assumed): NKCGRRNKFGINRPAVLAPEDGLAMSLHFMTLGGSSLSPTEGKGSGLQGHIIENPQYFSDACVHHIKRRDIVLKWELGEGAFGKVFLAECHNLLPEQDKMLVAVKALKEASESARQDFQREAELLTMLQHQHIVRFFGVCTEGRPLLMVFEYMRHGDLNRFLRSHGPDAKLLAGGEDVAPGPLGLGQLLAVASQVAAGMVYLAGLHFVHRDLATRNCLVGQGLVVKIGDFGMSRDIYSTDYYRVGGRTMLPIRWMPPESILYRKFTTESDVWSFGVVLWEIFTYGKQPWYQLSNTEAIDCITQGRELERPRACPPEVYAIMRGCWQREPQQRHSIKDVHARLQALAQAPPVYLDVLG

Row | Compound | IC50 ([1]; Homo sapiens, KM12, 72 h) | IC50 (wild type NTRK1 enzyme) | IC50 ([2]; Homo sapiens, KM12, 72 h) | IC50 [1] | IC50 [2] | GI50 ([1]; Homo sapiens, KM12, G595R mutant NTRK fusion cells) | GI50 ([2]; Homo sapiens, KM12, wild-type NTRK fusion cells, read-out: NTRK wt Cellular GI50)
1 | N#Cc1cc(F)cc(CNC(=O)c2n[nH]c3ncnc(N[C@@H]4CC[C@@H](O)[C@H]4O)c23)c1 [Compound 22] | > 1 µM | 0.1 to 1 µM | > 1 µM |  |  |  | 
2 | CN(Cc1cc(F)ccc1Cl)C(=O)c1n[nH]c2ncnc(N[C@@H]3COC[C@@H](O)[C@H]3O)c12 [Compound 162] | 0.01 to 0.1 µM | < 0.01 µM | 0.01 to 0.1 µM |  |  |  | 
3 | CN(Cc1cc(F)cc(C#N)c1)C(=O)c1n[nH]c2ncnc(NC3CCC(O)C3O)c12 (centres unmarked) [Compound 44] |  | 0.01 to 0.1 µM |  | 0.1 to 1 µM | 0.01 to 0.1 µM |  | 
4 | O=C(NCc1cc(F)ccc1F)c1n[nH]c2ncnc(N[C@@H]3C[C@H]4C[C@H]4[C@H]3O)c12 [Compound 4] | > 1 µM | 0.1 to 1 µM | > 1 µM |  |  |  | 
5 | COc1c(F)cc(F)cc1C1CC(F)CN1C(=O)c1n[nH]c2ncnc(NC3CCCC(O)C3O)c12 (centres unmarked) [Compound 234] |  | < 0.01 µM |  | < 0.01 µM | < 0.01 µM |  | 
6 | CN(Cc1cccnc1Cl)C(=O)c1n[nH]c2ncnc(N[C@@H]3CC[C@@H](O)[C@H]3O)c12 [Compound 138] |  | 0.1 to 1 µM |  | 0.1 to 1 µM | 0.1 to 1 µM |  | 
7 | O=C(c1n[nH]c2ncnc(N[C@@H]3CC[C@@H](O)[C@H]3O)c12)N1C[C@@H](F)C[C@@H]1c1cc(F)ccc1OC(F)F [Compound 237] | 0.01 to 0.1 µM | < 0.01 µM | 0.01 to 0.1 µM |  |  |  | 
8 | CC(NC(=O)c1n[nH]c2ncnc(NC3CCC(O)C3O)c12)c1cc(F)ccc1F (centres unmarked) [Compound 34] |  | 0.01 to 0.1 µM |  | 0.1 to 1 µM | 0.01 to 0.1 µM |  | 
9 | CN(Cc1cc(F)ccc1F)C(=O)c1n[nH]c2ncnc(N[C@@H]3CCC[C@H]3O)c12 [Compound 6] | 0.01 to 0.1 µM | < 0.01 µM | 0.01 to 0.1 µM |  |  |  | 
10 | O=C(c1n[nH]c2ncnc(N[C@@H]3CC[C@@H](O)[C@H]3O)c12)N1C[C@@H](F)C[C@@H]1c1cc(F)cc(F)c1 [Compound 173] | < 0.01 µM | < 0.01 µM | < 0.01 µM |  |  |  | 
11 | O=C(c1n[nH]c2ncnc(N[C@@H]3CC[C@@H](O)[C@H]3O)c12)N1C[C@@H](F)C[C@@H]1c1cc(F)cc(Cl)c1 [Compound 127] | < 0.01 µM | < 0.01 µM | < 0.01 µM |  |  |  | 
12 | Cc1ccc(F)cc1CNC(=O)c1n[nH]c2ncnc(N[C@@H]3CC[C@@H](O)[C@H]3O)c12 [Compound 2] | 0.1 to 1 µM | 0.1 to 1 µM | 0.1 to 1 µM |  |  |  | 
13 | O=C(c1n[nH]c2ncnc(N[C@@H]3CCC[C@@H](O)[C@H]3O)c12)N1C[C@@H](F)C[C@@H]1c1cc(F)cc(Cl)c1 [Compound 130] |  | < 0.01 µM |  | < 0.01 µM | < 0.01 µM |  | 
14 | O=C(c1n[nH]c2ncnc(N[C@H]3[C@H](O)[C@H](O)[C@@H]4C[C@@H]43)c12)N1C[C@@H](F)C[C@@H]1c1cc(Cl)ccc1F [Compound 215] |  | < 0.01 µM |  | < 0.01 µM | < 0.01 µM |  | 
15 | O=C(c1n[nH]c2ncnc(NC3CCCC(O)C3O)c12)N1CC(F)CC1c1cc(F)ccc1OC(F)(F)F (centres unmarked) [Compound 243] |  | < 0.01 µM |  | < 0.01 µM | < 0.01 µM |  | 
16 | O=C(c1n[nH]c2ncnc(NC3COCC(O)C3O)c12)N1CC(F)CC1c1cccc(F)c1 (centres unmarked) [Compound 169] |  | 0.01 to 0.1 µM |  | 0.01 to 0.1 µM | 0.01 to 0.1 µM |  | 
17 | O=C(c1n[nH]c2ncnc(NC3CCOCC3O)c12)N1CC(F)CC1c1cc(F)cc(F)c1F (centres unmarked) [Compound 205] |  | < 0.01 µM |  | < 0.01 µM | < 0.01 µM |  | 
18 | O=C(NC(CO)c1cc(F)ccc1F)c1n[nH]c2ncnc(NC3CC(F)CC3O)c12 (centres unmarked) [Compound 61] | > 1 µM | 0.1 to 1 µM | 0.1 to 1 µM |  |  |  | 
19 | O=C(c1n[nH]c2ncnc(NC3CC(F)CC3O)c12)N1CC(F)CC1c1cc(F)cnc1Cl (centres unmarked) [Compound 207] |  | 0.01 to 0.1 µM |  | 0.01 to 0.1 µM | 0.01 to 0.1 µM |  | 
20 | CN(Cc1cc(F)cnc1Cl)C(=O)c1n[nH]c2ncnc(NC3COCCC3O)c12 (centres unmarked) [Compound 149] |  | < 0.01 µM |  | 0.01 to 0.1 µM | 0.01 to 0.1 µM |  | 
21 | O=C(c1n[nH]c2ncnc(NC3CCOCC3O)c12)N1CC(F)CC1c1cc(F)ccc1Br (centres unmarked) [Compound 183] |  | < 0.01 µM |  | < 0.01 µM | < 0.01 µM |  | 
22 | C[C@@H](Oc1cc(-c2cnn(C3CCNCC3)c2)cnc1N)c1c(Cl)ccc(F)c1Cl [Crizotinib, crizotinib, reference compound] |  |  |  |  |  | 9 µM | 0.087 µM
